In assay [1] the test system is human leukemia MV4-11 cell line. The assay can be described thus: Antiproliferative assay (MTT, 72 h) against human leukemia MV4-11 cell line. It counts as cell-based. The following applies: MV4-11 cells, 72 h exposure, 50% growth inhibition, mean ± SD. The procedure: (§1) Anti-proliferative assays in vitro were performed in the same manner as described in the literature. The cell lines of human leukemia MV4-11, lung A549, and colon HCT 116 cancer were chosen as representing various tissue origins and BALB/3T3 normal murine fibroblasts to assess the cytotoxicity of tested compounds towards normal cells. The IC50 parameter (half-maximum inhibitory concentration) was calculated based on sulforhodamine B (HCT-116, A549, BALB/3T3) or MTT (MV4-11) assay results after 72 h of exposure. Each compound in a given concentration was tested in triplicate in each experiment, which was repeated three to five times.

In assay [2] the test system is normal murine embryonic fibroblast cell line (BALB/3T3). Put plainly: Antiproliferative assay (sulforhodamine B, 72 h) against normal murine fibroblasts BALB/3T3. The class given is cell-based, mouse. The following applies: BALB/3T3 normal murine fibroblasts, mean ± SD. As to the method: as §1
The subject of assay [3] is Human lung cancer cell line (A-549). The assay can be described thus: Antiproliferative assay (sulforhodamine B, 72 h) against A549. The class given is cell-based. The note with it: A549 cells, mean ± SD. The procedure: as §1
In assay [4] the test system is human colon adenocarcinoma cell line (HCT 116). The assay can be described thus: Antiproliferative assay (sulforhodamine B, 72 h) against HCT 116. The class given is cell-based. The following applies: HCT 116 cells, mean ± SD. As to the method:
as §1

In assay [5] the test system is human (HL-60) leukaemia cell line. On the set-up: method as in PMID 11099695. The following applies: cited from earlier work.
Assay [6] relates to human breast cancer MDA-MB-453 cell line. Set-up: method as in doi:10.1007/s00044-016-1508-z. The following applies: MDA-MB-453 breast cancer cell line; cited from earlier work.
The subject of another assay is salmon sperm DNA. Put plainly: DNA binding study by UV-Vis absorption spectroscopy. The procedure:
The DNA binding studies of compound 2d were performed using UV-Vis absorption spectroscopy with salmon sperm DNA in a phosphate buffer of pH 7.0 at 20 °C. […] The maximum absorption shifted from 256 nm to 289 nm. This illustrated that the mode of 2d binding to DNA was intercalation. The binding constant of 2d to DNA was calculated as 4.12 × 10^5 L·mol^−1, according to a double-reciprocal equation.
Figure 3 (a) UV-Vis absorption spectra of compound 2d at 20 °C. C(2d) = 50 μmol/L, C(DNA) = 0.0, 0.025, 0.05, 0.075, 0.1, 0.125, 0.15, 0.175, 0.2, 0.225, 0.25 μmol/L for curves 1–11 in phosphate buffer solution (pH 7.0) (b) Plot of 1/ΔA vs. 1/[DNA] for 2d-DNA.
The commercially obtained reagents (TCI, Tokyo, Japan) were used directly without further purification. The ^1H-NMR and ^13C-NMR spectra were taken on Varian INOVA-600, Varian INOVA-400, Varian INOVA-300 (Palo Alto, CA, USA), or Bruker 400 spectrometers (Billerica, MA, USA), using CDCl3 or DMSO-d6 as a solvent and tetramethylsilane (TMS) as the internal standard. The NMR spectra of the compounds are in Supplementary Materials. […] The melting points were determined on a RFS-10 hot stage microscope (J-Science, Kyoto, Japan). The UV spectra were recorded with a U-2910 spectrophotometer (Hitachi, Tokyo, Japan) in a 1 cm path length quartz cuvette at an indicated wavelength, and the sample was dissolved in phosphate buffer with 2.5% DMSO.

Where a name gives a salt, the structure may show the parent alone.

Consider `Cn1c2nc3ccccc3c-2c(NCC(C)(C)CN)c2cc(Cl)ccc21` [Compound 2c, N-(3-Amino-2,2-dimethylpropyl)-2-chloro-5-methyl-5H-indolo[2,3-b]quinolin-11-amine], for which the IC50 in assay [1] (Homo sapiens) is 119 ± 43 nM; in assay [2] (Mus musculus, BALB/3T3, 72 h), 9130 ± 844 nM; in assay [3] (Homo sapiens, A549, 72 h), 1460 ± 168 nM; in assay [4] (Homo sapiens), 1370 ± 351 nM.

Molecule `Cn1c2nc3ccccc3c-2c(NCC(C)(C)CNC(=S)Nc2ccccc2)c2ccccc21` [Compound 4a, 1-(2,2-Dimethyl-3-(5-methyl-5H-indolo[2,3-b]quinolin-11-ylamino)propyl)-3phenylthiourea] showed a 50% inhibitory concentration (IC50) in assay [1] (Homo sapiens) of 680 ± 215 nM.

In the case of `Cc1ccc2c(c1)c(NCC(C)(C)N)c1c3ccccc3nc-1n2C` [Compound 2f, N-(2-Amino-2-methylpropyl)-2,5-dimethyl-5H-indolo[2,3-b]quinolin-11-amine], the IC50 is 105 ± 27 nM in assay [1] (Homo sapiens); 10600 ± 330 nM in assay [2] (Mus musculus, BALB/3T3, 72 h); 1800 ± 270 nM in assay [3] (Homo sapiens, A549, 72 h); 2370 ± 481 nM in assay [4] (Homo sapiens).

For the molecule `Cn1c2nc3ccccc3c-2c(NCC(C)(C)CNC(=O)Nc2ccccc2)c2cc(Cl)ccc21` [Compound 3c, 1-(3-(2-Chloro-5-methyl-5H-indolo[2,3-b]quinolin-11-ylamino)-2,2-dimethylpropyl)-3-phenylurea], in assay [1] (Homo sapiens), the IC50 was found to be 790 ± 302 nM.

Consider `Cn1c2nc3ccccc3c-2c(NCC(C)(C)NC(=O)Nc2ccccc2)c2ccccc21` [Compound 3d, 1-(2-Methyl-1-(5-methyl-5H-indolo[2,3-b]quinolin-11-ylamino)propan-2-yl)-3-phenylurea], for which the IC50 in assay [1] (Homo sapiens) worked out at 464 ± 141 nM.

As for `Cn1c2nc3ccccc3c-2c(NCC(C)(C)NC(=S)Nc2ccccc2)c2cc(Cl)ccc21` [Compound 4b, 1-(1-(2-Chloro-5-methyl-5H-indolo[2,3-b]quinolin-11-ylamino)-2-methylpropan-2-yl)-3-phenylthiourea], it took 2330 ± 1010 nM to reach half-maximal inhibition in assay [1] (Homo sapiens) (IC50).

Take `Cn1c2nc3ccccc3c-2c(Cl)c2ccccc21` [Compound 1a]: half-maximal inhibition in assay [1] (Homo sapiens) (IC50) was put at 1310 ± 262 nM.

Regarding `N.N.[Cl][Pt][Cl]` [Cisplatin, reference compound], the IC50 in assay [1] turned out to be 2820 ± 450 nM; in assay [2], 8700 ± 97 nM; in assay [3] it was 9870 ± 2400 nM; in assay [4], 8500 ± 540 nM.

As for `Cn1c2nc3ccccc3c-2cc2ccccc21` [neocryptolepine (II), neocryptolepine], the IC50 in assay [5] was 12700 ± 1300 nM; in assay [6], 7480 ± 4420 nM.

Regarding `Cn1c2nc3ccccc3c-2c(NCC(C)(C)CN)c2cc(Br)ccc21` [Compound 2d, N-(3-Amino-2,2-dimethylpropyl)-2-bromo-5-methyl-5H-indolo[2,3-b]quinolin-11-amine], the IC50 in assay [1] (Homo sapiens) turned out to be 308 ± 102 nM. Besides, the “mode of binding to DNA” value in the assay on salmon sperm DNA (UV-Vis, red shift 256 nm to 289 nm and hypochromic effect, pH 7.0, 20 °C) is recorded as “intercalation”. Besides, the “binding constant to DNA” value with salmon sperm DNA (salmon sperm DNA, phosphate buffer pH 7.0, 20 °C, double-reciprocal equation) stood at 412000 L/mol.

The molecule `Cn1c2nc3ccccc3c-2c(NCC(C)(C)N)c2ccccc21` [Compound 2e, N-(2-Amino-2-methylpropyl)-5-methyl-5H-indolo[2,3-b]quinolin-11-amine] came in with an IC50 in assay [1] (Homo sapiens) of 392 ± 188 nM.

`Cn1c2nc3ccccc3c-2c(NCC(C)(C)CNC(=O)Nc2ccccc2)c2ccccc21` [Compound 3a, 1-(2,2-Dimethyl-3-(5-methyl-5H-indolo[2,3-b]quinolin-11-ylamino)propyl)-3-phenylurea] showed an IC50 in assay [1] (Homo sapiens) of 549 ± 108 nM.

As to `Cn1c2nc3ccccc3c-2c(NCC(C)(C)CN)c2ccccc21` [Compound 2a, N-(3-Amino-2,2-dimethylpropyl)-5-methyl-5H-indolo[2,3-b]quinolin-11-amine], the IC50 in assay [1] (Homo sapiens) was determined as 150 ± 60 nM; in assay [2] (Mus musculus, BALB/3T3, 72 h) it was 4790 ± 2020 nM; in assay [3] (Homo sapiens, A549, 72 h), 1510 ± 198 nM; in assay [4] (Homo sapiens), 1260 ± 361 nM.

Consider `Cc1ccc2c(c1)c(NCC(C)(C)CN)c1c3ccccc3nc-1n2C` [Compound 2b, N-(3-Amino-2,2-dimethylpropyl)-2,5-dimethyl-5H-indolo[2,3-b]quinolin-11-amine], for which the IC50 in assay [1] (Homo sapiens) was 288 ± 75 nM.

Regarding `CC(N)CNc1c2c3ccccc3nc-2n(C)c2ccc(Cl)cc12` (centres unmarked) [Compound 2m, N-(2-Aminopropyl)-2-chloro-5-methyl-5H-indolo[2,3-b]quinolin-11-amine], the IC50 in assay [1] (Homo sapiens) came to 103 ± 14 nM; in assay [2] (Mus musculus, BALB/3T3, 72 h), 1020 ± 17 nM; in assay [3] (Homo sapiens, A549, 72 h), 1270 ± 118 nM; in assay [4] (Homo sapiens), 1200 ± 283 nM.

As for `COc1cccc2c1C(=O)c1c(O)c3c(c(O)c1C2=O)C[C@@](O)(C(=O)CO)C[C@@H]3O[C@H]1C[C@H](N)[C@H](O)[C@H](C)O1` [Doxorubicin HCl, reference compound], the IC50 in assay [1] (Homo sapiens) came out at 6 ± 2 nM; in assay [2] (Mus musculus, BALB/3T3, 72 h) it was 1080 ± 33 nM; in assay [3] (Homo sapiens, A549, 72 h) it was 329 ± 97 nM; in assay [4] (Homo sapiens), 390 ± 98 nM.

With `Cc1ccc2c(c1)c(NCC(C)(C)CNC(=O)Nc1ccccc1)c1c3ccccc3nc-1n2C` [Compound 3b, 1-(3-(2,5-Dimethyl-5H-indolo[2,3-b]quinolin-11-ylamino)-2,2-dimethylpropyl)-3-phenylurea], it took 427 ± 92 nM to reach half-maximal inhibition in assay [1] (Homo sapiens) (IC50).

In assay [1] (Homo sapiens), `Cn1c2nc3ccccc3c-2c(NCC(C)(C)N)c2cc(Cl)ccc21` [Compound 2g, N-(2-Amino-2-methylpropyl)-2-chloro-5-methyl-5H-indolo[2,3-b]quinolin-11-amine] returned an IC50 of 453 ± 209 nM.

Take `Cn1c2nc3ccccc3c-2c(NCC(O)CN)c2cc(Cl)ccc21` (centres unmarked) [Compound 2h, 1-Amino-3-(2-chloro-5-methyl-5H-indolo[2,3-b]quinolin-11-ylamino)propan-2-ol]: the IC50 was 42 ± 14 nM in assay [1] (Homo sapiens); 197 ± 28 nM in assay [3] (Homo sapiens, A549, 72 h); 138 ± 50 nM in assay [4] (Homo sapiens).

For `Cn1c2nc3ccccc3c-2c(NCC(O)CN)c2cc(Br)ccc21` (centres unmarked) [Compound 2k, 1-Amino-3-(2-bromo-5-methyl-5H-indolo[2,3-b]quinolin-11-ylamino)propan-2-ol], the IC50 in assay [1] (Homo sapiens) was 57 ± 15 nM; in assay [3], 190 ± 27 nM; in assay [3] (Homo sapiens, A549, 72 h) it was 199 nM; in assay [4] (Homo sapiens), 117 ± 55 nM.

As for `Cn1c2nc3ccccc3c-2c(NCC(C)(C)N)c2cc(Br)ccc21` [Compound 2n, N-(2-Amino-2-methylpropyl)-2-bromo-5-methyl-5H-indolo[2,3-b]quinolin-11-amine], the IC50 was 78 ± 20 nM in assay [1] (Homo sapiens); 939 ± 18 nM in assay [2] (Mus musculus, BALB/3T3, 72 h); 988 ± 164 nM in assay [3] (Homo sapiens, A549, 72 h); 842 ± 367 nM in assay [4] (Homo sapiens).

These data come from PMC6150407, “Synthesis and In Vitro Antiproliferative Activity of 11-Substituted Neocryptolepines with a Branched ω-Aminoalkylamino Chain” (Molecules : A Journal of Synthetic Chemistry and Natural …, 2017).
